# Experimental data published in patent US20230193038A1, “METHODS OF DIGITAL PRINTING USING MODIFIED INDIGO COMPOUNDS” (VP Jeanswear LP, priority 2017, published 2023).
# Assay: Conversion of the modified indigo compound to indigo under hydrolyzing conditions
# Format: physicochemical
# Method: The hydrolysis is performed using any chemical compound or condition that is capable of converting the dye compound to indigo. In some embodiments, the hydrolysis is performed in aqueous compositions which contain a hydrolyzing agent. In other embodiments, the hydrolyzing agent may be selected by one skilled in the art and may include, without limitation, a base, heat, steam, or a combination thereof.
smiles,measurement,value
O=C1/C(=C2/C(=O)c3ccccc3N2C(=O)c2ccncc2)N(C(=O)c2ccncc2)c2ccccc21 [Compound 37],hydrolysis to indigo,hydrolyzes to indigo
